Measurements reported in ChEMBL document CHEMBL5543126, “Combinatorial Ubiquitination REal-time PROteolysis (CURE-PROs): A Modular Platform for Generating Reversible, Self-Assembling Bifunctional Targeted Degraders” (J Med Chem, 2024).
One block for each compound: values may come before it. Activity calls are given as the source filed them. The rule behind the calls is not given here.

Assays:
Type in all cases: cell-based
[1] = biological target: T1, von Hippel-Lindau disease tumor suppressor/Bromodomain-containing protein 4 (Homo sapiens, UniProt O60885+P40337); test: (§1) PROTAC activity at BRD4/VHL in human MCF7 cells assessed as induction of BRD4 degradation by measuring residual activity at 300 nM incubated for 24 hrs in presence of 1 uM BRD4 based ligand ((4S)-6-(4-chlorophenyl)-4-(2-(ethylamino)-2-oxoethyl)-1-methyl4Hbenzo[f][1,2,4]triazolo [4,3-a][1,4]diazepin-8-yl)boronic acid by Western blot based Combinatorial Ubiquitination Real-time PROteolysis analysis
T1 sequence (P40337 whole entry, looked up, other chains not shown): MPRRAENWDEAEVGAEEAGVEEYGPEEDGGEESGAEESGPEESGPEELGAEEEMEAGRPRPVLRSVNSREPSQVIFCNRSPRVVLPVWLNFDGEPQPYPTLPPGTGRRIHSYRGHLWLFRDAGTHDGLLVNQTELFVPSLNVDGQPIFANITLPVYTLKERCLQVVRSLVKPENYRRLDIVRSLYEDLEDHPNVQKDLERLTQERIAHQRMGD

[2] = biological target: T1, von Hippel-Lindau disease tumor suppressor/Bromodomain-containing protein 4; test: as §1, with “30” for “300”, “300 nM” for “1 uM”
[3] = biological target: T1, von Hippel-Lindau disease tumor suppressor/Bromodomain-containing protein 4; test: as §1, with “3 uM” for “300 nM”, “of” for “of 1 uM”
[4] = biological target: T1, von Hippel-Lindau disease tumor suppressor/Bromodomain-containing protein 4; test: as §1, with “100 nM” for “1 uM”
[5] = biological target: T1, von Hippel-Lindau disease tumor suppressor/Bromodomain-containing protein 4; test: as §1, with “30” for “300”, “100 nM” for “1 uM”
[6] = biological target: T1, von Hippel-Lindau disease tumor suppressor/Bromodomain-containing protein 4; test: as §1, with “at 10 uM” for “at 300 nM”, “of 10” for “of 1”
[7] = biological target: T1, von Hippel-Lindau disease tumor suppressor/Bromodomain-containing protein 4; test: as §1, with “VHL/BRD4” for “BRD4/VHL”, “HEK293” for “human MCF7”, “Tmax” for “residual activity”, “1 uM measured every 15 mins” for “300 nM incubated”, “of” for “of 1 uM”, “HiBiT” for “Western blot”
[8] = biological target: T1, von Hippel-Lindau disease tumor suppressor/Bromodomain-containing protein 4; test: as §1, with “of 3” for “of 1”
[9] = biological target: T1, von Hippel-Lindau disease tumor suppressor/Bromodomain-containing protein 4; test: as §1, with “VHL/BRD4” for “BRD4/VHL”, “HEK293” for “human MCF7”, “maximal level of degradation” for “residual activity”, “10 uM measured every 15 mins” for “300 nM incubated”, “of” for “of 1 uM”, “HiBiT” for “Western blot”
[10] = biological target: T1, von Hippel-Lindau disease tumor suppressor/Bromodomain-containing protein 4; test: as §1, with “at 3 uM” for “at 300 nM”, “of 10” for “of 1”
[11] = biological target: T1, von Hippel-Lindau disease tumor suppressor/Bromodomain-containing protein 4; test: as §1, with “3 uM” for “300 nM”
[12] = biological target: T1, von Hippel-Lindau disease tumor suppressor/Bromodomain-containing protein 4; test: as §1, with “at 3 uM” for “at 300 nM”, “of 3” for “of 1”
[13] = biological target: T1, von Hippel-Lindau disease tumor suppressor/Bromodomain-containing protein 4; test: (§2) PROTAC activity at BRD4/VHL in human MCF7 cells assessed as induction of BRD4 degradation by measuring residual activity at 3 uM incubated for 24 hrs in presence of VHL based ligand (2S,4R)-1-((S)-2-(2,3-dihydroxybenzamido)-3,3-dimethylbutanoyl)-4-hydroxy-N-(4-(4-methylthiazol-5-yl)benzyl)pyrrolidine-2-carboxamide by Western blot based Combinatorial Ubiquitination Real-time PROteolysis analysis
[14] = biological target: T1, von Hippel-Lindau disease tumor suppressor/Bromodomain-containing protein 4; test: as §1, with “1 uM” for “300 nM”, “100 nM” for “1 uM”
[15] = biological target: T1, von Hippel-Lindau disease tumor suppressor/Bromodomain-containing protein 4; test: as §2, with “VHL/BRD4” for “BRD4/VHL”, “HEK293” for “human MCF7”, “degradation rate” for “residual activity”, “measured every 15 mins” for “incubated”, “HiBiT” for “Western blot”
[16] = biological target: T1, von Hippel-Lindau disease tumor suppressor/Bromodomain-containing protein 4; test: (§3) PROTAC activity at VHL/BRD4 in HEK293 cells assessed as induction of BRD4 degradation by measuring Tmax at 1 uM measured every 15 mins for 24 hrs in presence of VHL based ligand (2S,4R)-1-((S)-2-(2,3-dihydroxybenzamido)-3,3-dimethylbutanoyl)-4-hydroxy-N-(4-(4-methylthiazol-5-yl)benzyl)pyrrolidine-2-carboxamide by HiBiT based Combinatorial Ubiquitination Real-time PROteolysis analysis
[17] = biological target: T1, von Hippel-Lindau disease tumor suppressor/Bromodomain-containing protein 4; test: as §2, with “at VHL/BRD4” for “at BRD4/VHL”, “degradation” for “degradation by measuring residual activity”, “at 10” for “at 3”, “VHL ligand” for “VHL”, “based” for “based ligand”
[18] = biological target: T1, von Hippel-Lindau disease tumor suppressor/Bromodomain-containing protein 4; test: as §2, with “300 nM” for “3 uM”
[19] = biological target: T1, von Hippel-Lindau disease tumor suppressor/Bromodomain-containing protein 4; test: as §2, with “activity at 300 nM incubated for” for “activity at 3 uM incubated for”, “presence of 100 nM VHL based” for “presence of VHL based”
[20] = biological target: T1, von Hippel-Lindau disease tumor suppressor/Bromodomain-containing protein 4; test: as §2, with “activity at 300 nM incubated for” for “activity at 3 uM incubated for”, “presence of 1 uM VHL based” for “presence of VHL based”
[21] = biological target: T1, von Hippel-Lindau disease tumor suppressor/Bromodomain-containing protein 4; test: as §3, with “measuring maximal level of degradation” for “measuring Tmax”, “at 10” for “at 1”
[22] = biological target: T1, von Hippel-Lindau disease tumor suppressor/Bromodomain-containing protein 4; test: as §2, with “presence of 300 nM VHL based” for “presence of VHL based”
[23] = biological target: Protein cereblon/Bromodomain-containing protein 4 (Homo sapiens) (UniProt O60885+Q96SW2); test: PROTAC activity at BRD4/CRBN in human HeLa cells assessed as induction of BRD4 degradation at 10 uM incubated for 24 hrs in presence of CRBN based ligand N-((2-(2,6-dioxopiperidin-3-yl)-1,3-dioxoisoindolin-4-yl)methyl)-3,4-dihydroxybenzamide by Western blot analysis based Combinatorial Ubiquitination Real-time PROteolysis analysis
Chain of Protein cereblon/Bromodomain-containing protein 4 (Homo sapiens) (Q96SW2 whole entry, looked up, other chains not shown): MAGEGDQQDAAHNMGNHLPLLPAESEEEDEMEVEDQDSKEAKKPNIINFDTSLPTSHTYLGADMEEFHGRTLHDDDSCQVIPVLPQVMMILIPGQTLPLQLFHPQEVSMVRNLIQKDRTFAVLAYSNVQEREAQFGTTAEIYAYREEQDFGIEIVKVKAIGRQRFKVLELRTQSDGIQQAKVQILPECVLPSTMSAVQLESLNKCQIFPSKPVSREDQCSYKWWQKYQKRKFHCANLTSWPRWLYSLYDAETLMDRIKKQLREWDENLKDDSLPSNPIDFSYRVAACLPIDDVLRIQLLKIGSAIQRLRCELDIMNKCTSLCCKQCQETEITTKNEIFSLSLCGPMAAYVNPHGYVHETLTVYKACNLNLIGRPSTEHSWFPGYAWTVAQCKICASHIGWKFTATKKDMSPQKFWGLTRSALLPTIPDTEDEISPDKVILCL

Activity [1]: 38%
Activity [2]: 104%
Activity [3]: 73%
Activity [4]: 72%
Activity [5]: 89%
Activity [6]: 6%
Tmax [7]: 19.5 h
Activity [8]: 37%
Emax [9]: 96%
Activity [10]: 16%
Activity [11]: 32%
Activity [12]: 16%
Structure (SMILES): Cc1ncsc1-c1ccc(CNC(=O)[C@@H]2C[C@@H](O)CN2C(=O)[C@@H](NC(=O)c2cccc(O)c2O)C(C)(C)C)cc1

Structure (SMILES): CCNC(=O)C[C@@H]1N=C(c2ccc(Cl)cc2)c2cc(B(O)O)ccc2-n2c(C)nnc21
Activity [13]: 73%
Activity [14]: 56%
Activity [15]: 0.908 h⁻¹
Tmax [16]: 19.5 h
Activity [17]: Active
Activity [18]: 100%
Activity [19]: 72%
Activity [20]: 38%
Emax [21]: 96%
Activity [22]: 39%
Activity [23]: inactive
